Laboratory results as given in ChEMBL document CHEMBL1132502, “Synthesis of a fluorescent microgonotropen (FMGT-1) and its interactions with the dodecamer d(CCGGAATTCCGG)” (Bioorg Med Chem Lett, 1999).

Test system: Nucleic Acid
Test: Association constant (Ka) with DNA dodecamer d(CCGGAATTCCGG) was determined
Type: nucleic-acid assay

CN1CCN(c2ccc3[nH]c(-c4ccc5[nH]c(-c6ccc(O)cc6)nc5c4)nc3c2)CC1
Ka: 1.3 M⁻¹
